Values of other authors in article PMC9374181 (Toxicology and applied pharmacology, 2022).
Where two headings read alike, the source gives them in different places.

What was measured:
[1] = rat models, IM
[2] = general statement on approved oximes

NC(=O)c1cc[n+](COC[n+]2ccccc2/C=N/O)cc1 [asoxime]
Cmax ([1]; 50 mg/kg, ref Cassel and Fosbraey, 1996): 900 ng/mL
plasma T1/2 [2]: less than 90 min
plasma T1/2 (ref Cassel and Fosbraey, 1996): 48 min

O/N=C/c1cc[n+](COC[n+]2ccc(/C=N/O)cc2)cc1 [obidoxime]
Cmax ([1]; 50 mg/kg, no reference given): 26000 ng/mL
plasma T1/2 [2]: less than 90 min
plasma T1/2 (ref Alioth-Streichenberg et al., 1991): 35 min

C[n+]1ccccc1/C=N/O [Oxime 2-PAM, pralidoxime]
Cmax ([1]; 40 mg/kg, ref Green et al., 1986): 14500 ng/mL
plasma T1/2 [2]: less than 90 min
published half-life (published value, no reference given): less than 2 hours
